Experiment: Color intensity E1% of cavernamine-L powder and its formulation
Assay type: physicochemical
Procedure: The dilution mixture was adjusted to pH 5 with Sodium Hydroxide 2 M. The cavernamine-L powder was added to the dilution mixture in a concentration of 0.5 g/L and mixed for 5 minutes. The colored solution was then frozen prior to lyophilzation. Diluted red powder was recovered and the color intensity of the formulated cavernamine-L was detected to be E1% (at 492 nm) of 2.2, compared to E1% (at 492 nm) of 220 of original pure cavernamine-L powder.

## C/C=C\C1=CC2=CC3=C(C(=O)C(C)CC)C(=O)OC3(C)C(=O)C2=CN1C(CC(C)C)C(=O)O (stereo not drawn) [cis-cavernamine-L]
  color intensity E1% (at 492 nm): 220
